In patent publication US8293781B2, “Indole derivatives having cPLA2 inhibiting activity and applications and production methods of the same” (Daiichi Sankyo Company, Limited, priority 2007, dated 2012) one finds IC50 data, which are given here for 27 compounds.

Structures are written as SMILES. pIC50: −log10 of the molar value. Where a name gives a salt, the structure may show the parent alone.

The first assay concerns the target T1, cPLA2 crudely purified from the cytoplasm fraction of U937 (Homo sapiens, UniProt P47712).
T1 construct: cPLA2 crudely purified from the cytoplasm fraction of U937; endogenous in cells; host or cells: U937 cells (cytoplasm fraction, crude purification)
T1 sequence (P47712 1-749): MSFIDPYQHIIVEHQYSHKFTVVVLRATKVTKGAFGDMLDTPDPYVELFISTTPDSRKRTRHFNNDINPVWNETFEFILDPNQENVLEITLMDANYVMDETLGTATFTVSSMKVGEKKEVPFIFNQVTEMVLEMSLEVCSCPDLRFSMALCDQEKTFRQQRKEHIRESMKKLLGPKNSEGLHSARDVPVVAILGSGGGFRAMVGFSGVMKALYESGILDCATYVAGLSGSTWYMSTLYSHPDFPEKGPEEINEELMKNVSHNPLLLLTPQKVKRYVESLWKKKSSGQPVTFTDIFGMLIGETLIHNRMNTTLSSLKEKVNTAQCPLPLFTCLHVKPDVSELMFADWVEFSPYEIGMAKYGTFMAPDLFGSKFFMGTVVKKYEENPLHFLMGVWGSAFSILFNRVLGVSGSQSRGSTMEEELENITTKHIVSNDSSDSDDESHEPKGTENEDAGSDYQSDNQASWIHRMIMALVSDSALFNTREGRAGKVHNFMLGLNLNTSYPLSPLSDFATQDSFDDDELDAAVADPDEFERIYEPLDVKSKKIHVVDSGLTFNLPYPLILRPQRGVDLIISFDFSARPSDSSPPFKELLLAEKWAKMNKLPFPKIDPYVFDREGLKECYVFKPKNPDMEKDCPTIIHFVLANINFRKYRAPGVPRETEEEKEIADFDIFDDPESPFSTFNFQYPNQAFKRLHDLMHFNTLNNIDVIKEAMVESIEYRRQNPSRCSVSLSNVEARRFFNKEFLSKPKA
Nature of the assay: Measurement of cPLA2 inhibitory activity (release of [14C]-arachidonic acid from phosphatidyl choline liposome). It counts as biochemical.
Conditions: not given
As to the method: The cPLA2 inhibitory activity was measured based on the method described in the document [See H. Naraba et al., J. Immunol. 160, 2974-2982 (1998)] and modified in the following way.
A DMSO solution of the present invitation compounds was diluted to 2.5 times the final concentration with the assay buffer (4 mM CaCl2, 2 mM dithiothreitol, 150 mM NaCl, 50 mM HEPES buffer solution (pH7.5)) containing 0.55 mg/ml BSA. To 20 μl of this, cPLA2 crudely purified from the cytoplasm fraction of U937 was added in an amount of 10 μl after dilution by an assay buffer solution containing 0.55 mg/ml BSA. A liposome prepared by ultrasonically treating L-α-1-palmitoyl-2-[14C]arachidonyl-phosphatidyl choline (made by PerkinElmer) and adjusted by the assay buffer solution to a concentration of phosphatidyl choline of 10 μM was added and stirred in by an amount of 20 μl and the mixture was reacted at 37° C. for 60 minutes. The [^14C]-arachidonic acid released due to the reaction was extracted based on the method described in the documents [see V. P. Dole et al., J. Biol. Chem. 235, 2595 (1960)], was added to Lumaplate® (made by PerkinElmer), dried, then measured by Topcount® (made by PerkinElmer). Except for not adding the present invention compounds, the same procedure was performed as the above to obtain the enzyme control. Except for not adding the invention compounds and not adding the enzyme, the same procedure was followed as above to obtain a negative control. The inhibiting activity was expressed as a percent (%) of the value minus the negative control with respect to the value of the enzyme control minus the negative control. From this, the 50% inhibiting concentration (IC50, μM) was calculated.
Regarding `O=C(O)/C=C/c1ccc2c(c1)c(C(=O)Cc1ccccc1)cn2-c1ccccc1` [Example 11, (2E)-3-[1-phenyl-3-(phenylacetyl)-1H-indol-5-yl]-2-propenoic acid], the pIC50 was 5.72.

The assay is the same for the next values; noted with them: cPLA2 from U937 cytoplasm fraction, [14C]arachidonyl-phosphatidyl choline liposome, 37° C., 60 minutes; read-out: cPLA2 inhibitory activity, 50% inhibiting concentration IC50.
`O=C(O)CCc1ccc2c(c1)c(CCc1ccccc1)cn2-c1ccc(OCCN2CCCC2)cc1` [Example 223, 3-{3-(2-phenylethyl)-1-[4-(2-pyrrolidin-1-ylethoxy)phenyl]-1H-indol-5-yl}propanoic acid hydrochloride]: the pIC50 is 7.24.
With `O=C(O)CCc1ccc2c(c1)c(CCc1ccccc1)cn2-c1ccc(OC2CCCCO2)cc1` (stereo not drawn) [Example 214, 3-{3-(2-phenylethyl)-1-[4-(tetrahydro-2H-pyran-2-yloxy)phenyl]-1H-indol-5-yl}propanoic acid 2-amino-2-(hydroxymethyl)propane-1,3-diol salt (1:1)], the pIC50 was 8.30.
In the case of `O=C(CCc1ccc2c(c1)c(CCc1ccccc1)cn2-c1ccccc1)Nc1nnn[nH]1` [Example 19, 3-[1-phenyl-3-(2-phenylethyl)-1H-indol-5-yl]-N-tetrazolylpropanamide], the pIC50 is 4.96.
As for `O=C(O)CCc1ccc2c(c1)c(CCc1ccccc1)cn2-c1cccc(OC(F)F)c1` [Example 185, 3-{1-[3-(difluoromethoxy)phenyl]-3-(2-phenylethyl)-1H-indol-5-yl}propanoic acid], the pIC50 was 6.56.
Same read-out and setting: the result for `CCOc1cccc(-n2cc(CCc3ccccc3)c3cc(CCC(=O)O)ccc32)c1` [Example 159, 3-[1-(3-ethoxyphenyl)-3-(2-phenylethyl)-1H-indol-5-yl]propanoic acid] reads 6.29; that for `O=C(O)/C=C/c1ccc2c(c1)c(CCc1ccccn1)cn2-c1ccc(O)cc1` [Example 271, (2E)-3-[1-(4-hydroxyphenyl)-3-(2-pyridin-2-ylethyl)-1H-indol-5-yl]-2-propenoic acid], 6.45; that for `O=C(O)CCc1ccc2c(c1)c(CCc1ccccn1)cn2-c1ccc(COC(F)F)cc1` [Example 302, 3-[1-{4-[(difluoromethoxy)methyl]phenyl}-3-(2-pyridin-2-ylethyl)-1H-indol-5-yl]propanoic acid hydrochloride], 6.12.
With `O=C(CCc1ccc2c(c1)c(CCc1ccccc1)cn2-c1ccc(OC(F)F)cc1)C(F)(F)F` [Example 329, 4-{1-[4-(difluoromethoxy)phenyl]-3-(2-phenylethyl)-1H-indol-5-yl}-1,1,1-trifluorobutan-2-one], the pIC50 was 6.50.
The same measure, in the same setting: in the case of `O=C(O)CCc1ccc2c(c1)c(CCc1ccccc1)cn2-c1ccc(OCc2cccnc2)cc1` [Example 248, 3-{3-(2-phenylethyl)-1-[4-(pyridin-3-ylmethoxy)phenyl]-1H-indol-5-yl}propanoic acid] it was 8.15; in that of `N#Cc1ccc(-n2cc(CCc3ccccc3)c3cc(CCC(=O)O)ccc32)cc1` [Example 81, 3-[1-(4-cyanophenyl)-3-(2-phenylethyl)-1H-indol-5-yl]propanoic acid], 7.24; in that of `O=C(O)CCc1ccc2c(c1)c(CCc1ccccn1)cn2-c1ccc(COc2ccc(F)cc2)cc1` [Example 300, 3-[1-{4-[(4-fluorophenoxy)methyl]phenyl}-3-(2-pyridin-2-ylethyl)-1H-indol-5-yl]propanoic acid hydrochloride], 6.42.
Take `O=C(O)CCc1ccc2c(c1)c(CCc1ccccc1)cn2-c1ccc(OCCCc2ccncc2)cc1` [Example 260, 3-{3-(2-phenylethyl)-1-[4-(3-pyridin-4-ylpropoxy)phenyl]-1H-indol-5-yl}propanoic acid]: the pIC50 was 8.10.
Regarding `N#CNC(=O)CCc1ccc2c(c1)c(CCc1ccccc1)cn2-c1ccccc1` [Example 18, N-cyano-3-[1-phenyl-3-(2-phenylethyl)-1H-indol-5-yl]propanamide], the pIC50 is 6.01.
For `O=C(O)CCc1ccc2c(c1)c(CCc1ccccc1)cn2-c1cccc([N+](=O)[O-])c1` [Example 165, 3-[1-(3-nitrophenyl)-3-(2-phenylethyl)-1H-indol-5-yl]propanoic acid], the pIC50 was 6.81.
On the same count and under the same terms, the result for `O=C(O)CCc1ccc2c(c1)c(CCc1ccccc1)cn2-c1cccc(C(=O)O)c1` [Example 177, 3-[5-(2-carboxyethyl)-3-(2-phenylethyl)-1H-indol-1-yl]benzoic acid] reads 5.60.
Take `O=Cc1cccc(-n2cc(CCc3ccccc3)c3cc(CCC(=O)O)ccc32)c1` [Example 175, 3-[1-(3-formylphenyl)-3-(2-phenylethyl)-1H-indol-5-yl]propanoic acid]: the pIC50 is 6.84.
On the same count and under the same terms, the result for `COCCc1ccc(-n2cc(CCc3ccccc3)c3cc(CCC(=O)O)ccc32)cc1` [Example 201, 3-{1-[4-(2-methoxyethyl)phenyl]-3-(2-phenylethyl)-1H-indol-5-yl}propanoic acid] reads 6.66; that for `O=C(O)CCc1ccc2c(c1)c(CCc1ccccc1)cn2-c1cccc(Cl)c1` [Example 181, 3-[1-(3-chlorophenyl)-3-(2-phenylethyl)-1H-indol-5-yl]propanoic acid], 6.86.
Still for that read-out and setting: in the case of `CC(C(=O)c1cn(-c2ccccc2)c2ccc(/C=C/C(=O)O)cc12)c1ccccc1` (stereo not drawn) [Example 26, (2E)-3-[1-phenyl-3-(2-phenylpropanoyl)-1H-indol-5-yl]-2-propenoic acid] it was 5.47.
Same read-out and setting: the result for `O=C(O)CCc1ccc2c(c1)c(CCc1ccccc1)cn2-c1ccc(C(=O)N2CCOCC2)cc1` [Example 312, 3-{1-[4-(morpholin-4-ylcarbonyl)phenyl]-3-(2-phenylethyl)-1H-indol-5-yl}propanoic acid] reads 6.39.
For the compound `CC(=O)Nc1ccc(-n2cc(CCc3ccccc3)c3cc(CCC(=O)O)ccc32)cc1` [Example 91, 3-{1-[4-(acetylamino)phenyl]-3-(2-phenylethyl)-1H-indol-5-yl}propanoic acid 2-amino-2-(hydroxymethyl)propane-1,3-diol salt (1:1)], the pIC50 was 6.68.
In the case of `O=C(O)CCc1ccc2c(c1)c(CCc1ccccc1)cn2-c1ccc(OCCCc2cccnc2)cc1` [Example 257, 3-{3-(2-phenylethyl)-1-[4-(3-pyridin-3-ylpropoxy)phenyl]-1H-indol-5-yl}propanoic acid], the pIC50 is 8.15.
For `CC(C)Oc1ccc(-n2cc(CCc3ccccc3)c3cc(CCC(=O)O)ccc32)cc1` [Example 121, 3-[1-(4-isopropoxyphenyl)-3-(2-phenylethyl)-1H-indol-5-yl]propanoic acid], the pIC50 is 8.15.
Still for that read-out and setting: in the case of `COCCOc1ccc(-n2cc(CCc3ccccc3)c3cc(CCC(=O)O)ccc32)cc1` [Example 203, 3-{1-[4-(2-methoxyethoxy)phenyl]-3-(2-phenylethyl)-1H-indol-5-yl}propanoic acid] it was 8.00; in that of `CN(C)c1ccc(-n2cc(CCc3ccccc3)c3cc(CCC(=O)O)ccc32)cc1` [Example 86, 3-{1-[4-(dimethylamino)phenyl]-3-(2-phenylethyl)-1H-indol-5-yl}propanoic acid 2-amino-2-(hydroxymethyl)propane-1,3-diol salt (1:1)], 7.62.
The same measure, in the same setting: in the case of `O=C(O)/C=C/c1ccc2c(c1)c(CCc1ccccc1)cn2-c1ccc(O)cc1` [Example 239, (2E)-3-[1-(4-hydroxyphenyl)-3-(2-phenylethyl)-1H-indol-5-yl]-2-propenoic acid] it was 7.27.
